Results published in patent publication US11034698B2, “Pyrazolo[ 1,5a]pyrimidine derivatives as IRAK4 modulators” (priority 2017, dated 2021).

Each molecule was assayed against human IRAK4 (Homo sapiens (Human), UniProt Q9NWZ3) (assay: IRAK4 kinase inhibition, Transcreener fluorescence polarization (ADP)). Details: not given.
human IRAK4, sequence (Q9NWZ3 whole entry): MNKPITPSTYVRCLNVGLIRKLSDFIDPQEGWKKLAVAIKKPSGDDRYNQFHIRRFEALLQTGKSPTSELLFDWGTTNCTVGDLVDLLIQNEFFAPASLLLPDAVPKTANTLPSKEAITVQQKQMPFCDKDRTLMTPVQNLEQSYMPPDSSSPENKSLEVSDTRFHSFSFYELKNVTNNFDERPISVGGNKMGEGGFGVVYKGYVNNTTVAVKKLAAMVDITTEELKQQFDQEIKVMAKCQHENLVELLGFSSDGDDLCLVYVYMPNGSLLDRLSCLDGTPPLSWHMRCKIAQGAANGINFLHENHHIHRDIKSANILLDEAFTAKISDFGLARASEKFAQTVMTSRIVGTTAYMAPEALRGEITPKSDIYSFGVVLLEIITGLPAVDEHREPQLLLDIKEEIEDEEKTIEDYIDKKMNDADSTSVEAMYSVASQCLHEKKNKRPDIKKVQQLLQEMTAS
Assay type: biochemical
Description: Compounds were assayed for inhibition of human IRAK4 and IRAK1 catalytic activity using recombinant enzyme produced from insect cells. Full-length IRAK4 protein, carrying an N-terminal His6-Tag, was obtained from Life Technologies (Carlsbad, Calif., USA). The IRAK1 construct was produced internally and was comprised of IRAK1 residues Arg194 to Ser712, preceded by an NH2-terminal His6 tag and the coding sequence for glutathione-S-transferase.
Kinase activities were assayed using the Transcreener-Fluorecescence polarization platform (BelBrook Labs, Madison, Wis., USA) that measures amounts of the reaction product, ADP.
Work on `COc1cc2c(cc1NC(=O)c1cnn3ccc(N4C[C@H](N)CC(F)(F)C4)nc13)CC(C)(C)O2` (single isomer, unassigned) [Example 37] yielded a Ki of 7.7 nM. Molecule `CC(C)Oc1cc2c(cc1NC(=O)c1cnn3cccnc13)CN([C@@H]1CCOC1)C2=O` (single isomer, unassigned) [Example 69] has a Ki of 1.8 nM. In the case of `CC1(C)Cc2cc(NC(=O)c3cnn4cccnc34)c(OC[C@@H]3C[C@@H]4NCCO[C@H]4C3)cc2O1` (single isomer, unassigned) [Example 31], the Ki is reported as 60 nM. In the case of `CC1(C)Cc2cc(NC(=O)c3cnn4cccnc34)c(OC[C@@H]3C[C@H]4NCCO[C@@H]4C3)cc2O1` (single isomer, unassigned) [Example 32], the Ki is reported as 720 nM.

Same assay, conditions: recombinant full-length His6-IRAK4 1.25 nM; 125 uM ATP; 125 uM peptide; 90 min; ATP Km 642 uM; read-out: IRAK4 Ki
With `CC(C)(O)[C@H](F)CN1Cc2cc(NC(=O)c3cnn4cccnc34)c(OC3CCNCC3)cc2C1=O` [Example 70, (R)-N-(2-(2-Fluoro-3-hydroxy-3-methylbutyl)-1-oxo-6-(piperidin-4-yloxy)isoindolin-5-yl)pyrazolo[1,5-a]pyrimidine-3-carboxamide] the Ki was 0.7 nM. Molecule `CC(C)(O)[C@H](F)CN1Cc2cc(NC(=O)c3cnn4cccnc34)c(N3CCN(CCn4ccnc4)CC3)cc2C1=O` [Example 106, (R)-N-(6-(4-(2-(1H-Imidazol-1-yl)ethyl)piperazin-1-yl)-2-(2-fluoro-3-hydroxy-3-methylbutyl)-1-oxoisoindolin-5-yl)pyrazolo[1,5-a]pyrimidine-3-carboxamide] has a Ki of 2.1 nM. With `CO[C@@H]1C[C@H]2CN(c3cc4c(cc3NC(=O)c3cnn5cccnc35)CN(C[C@@H](F)C(C)(C)O)C4=O)CCN2C1` [Example 101, N-(2-((R)-2-Fluoro-3-hydroxy-3-methylbutyl)-6-((7R,8aS)-7-methoxyhexahydropyrrolo[1,2-a]pyrazin-2(1H)-yl)-1-oxoisoindolin-5-yl)pyrazolo[1,5-a]pyrimidine-3-carboxamide] the Ki was 12 nM. `Cc1ncsc1CN1CCN(c2cc3c(cc2NC(=O)c2cnn4cccnc24)CC(C)(C)O3)CC1` [Example 11, N-(2,2-Dimethyl-6-(4-((4-methylthiazol-5-yl)methyl)piperazin-1-yl)-2,3-dihydrobenzofuran-5-yl)pyrazolo[1,5-a]pyrimidine-3-carboxamide] gave a Ki of 4.6 nM. In the case of `Cc1ccc(=O)[nH]c1CN1CCN(c2cc3c(cc2NC(=O)c2cnn4cccnc24)CC(C)(C)O3)CC1` [Example 5, N-(2,2-Dimethyl-6-(4-((3-methyl-6-oxo-1,6-dihydropyridin-2-yl)methyl)piperazin-1-yl)-2,3-dihydrobenzofuran-5-yl)pyrazolo[1,5-a]pyrimidine-3-carboxamide], the Ki is reported as 18 nM. `CO[C@H]1C[C@@H]2CN(c3cc4c(cc3NC(=O)c3cnn5cccnc35)CN(C[C@@H](F)C(C)(C)O)C4=O)CCN2C1` [Example 108, N-(2-((R)-2-Fluoro-3-hydroxy-3-methylbutyl)-6-((7S,8aR)-7-methoxyhexahydropyrrolo[1,2-a]pyrazin-2(1H)-yl)-1-oxoisoindolin-5-yl)pyrazolo[1,5-a]pyrimidine-3-carboxamide] showed a Ki of 1.3 nM. `Cc1nc[nH]c1CN1CCN(c2cc3c(cc2NC(=O)c2cnn4cccnc24)CC(C)(C)O3)CC1` [Example 8, N-(2,2-Dimethyl-6-(4-((4-methyl-1H-imidazol-5-yl)methyl)piperazin-1-yl)-2,3-dihvdrobenzofuran-5-yl)pyrazolo[1,5-a]pyrimidine-3-carboxamide] gave a Ki of 3.8 nM. `C[C@H]1C[C@@H]2CN(c3cc4c(cc3NC(=O)c3cnn5cccnc35)CN(C[C@@H](F)C(C)(C)O)C4=O)CCN2C1` [Example 110, N-[6-[(7S,8aR)-7-Methyl-3,4,6,7,8,8a-hexahydro-1H-pyrrolo[1,2-a]pyrazin-2-yl]-2-[(2R)-2-fluoro-3-hydroxy-3-methyl-butyl]-1-oxo-isoindolin-5-yl]pyrazolo[1,5-a]pyrimidine-3-carboxamide] gave a Ki of 7.5 nM. `COc1cc2c(cc1NC(=O)c1cnn3ccc(N(C)C)nc13)CC(C)(C)O2` [Example 44, 5-(Dimethylamino)-N-(6-methoxy-2,2-dimethyl-2,3-dihydrobenzofuran-5-yl)pyrazolo[1,5-a]pyrimidine-3-carboxamide] gave a Ki of 220 nM. For `O=C(Nc1cc2c(cc1N1CCOCC1)N(CCO)C(=O)CC2)c1cnn2cccnc12` [Example 47, N-(1-(2-Hydroxyethyl)-7-morpholino-2-oxo-1,2,3,4-tetrahydroquinolin-6-yl)pyrazolo[1,5-a]pyrimidine-3-carboxamide], the Ki was 53 nM. Molecule `Cc1oncc1CN1CCN(c2cc3c(cc2NC(=O)c2cnn4cccnc24)CC(C)(C)O3)CC1` [Example 12, N-(2,2-Dimethyl-6-(4-((5-methylisoxazol-4-yl)methyl)piperazin-1-yl)-2,3-dihydrobenzofuran-5-yl)pyrazolo[1,5-a]pyrimidine-3-carboxamide] has a Ki of 5.2 nM. With `CC1(C)Cc2cc(NC(=O)c3cnn4cccnc34)c(OC[C@@H]3Cc4ccccc4[C@H]3N)cc2O1` [Example 26, N-[6-[[(1S,2R)-1-Aminoindan-2-yl]methoxy]-2,2-dimethyl-3H-benzofuran-5-yl]pyrazolo[1,5-a]pyrimidine-3-carboxamide] the Ki was 280 nM. `CC(C)(O)[C@H](F)CN1Cc2cc(NC(=O)c3cnn4cccnc34)c(OC[C@@H]3CNC(=O)C3)cc2C1=O` [Example 71, N-[2-[(2R)-2-Fluoro-3-hydroxy-3-methyl-butyl]-1-oxo-6-[[(3S)-5-oxopyrrolidin-3-yl]methoxy]isoindolin-5-yl]pyrazolo[1,5-a]pyrimidine-3-carboxamide] gave a Ki of 3.2 nM. Molecule `CC(C)N1Cc2cc(NC(=O)c3cnn4cccnc34)c(C3CC3)cc2C1=O` [Example 97, N-(6-Cyclopropyl-2-isopropyl-1-oxoisoindolin-5-yl)pyrazolo[1,5-a]pyrimidine-3-carboxamide] has a Ki of 5.2 nM. `COc1cc2c(cc1NC(=O)c1cnn3ccc(N4CCNCC4)nc13)CC(C)(C)O2` [Example 42, N-(6-Methoxy-2,2-dimethyl-2,3-dihydrobenzofuran-5-yl)-5-(piperazin-1-yl)pyrazolo[1,5-a]pyrimidine-3-carboxamide] gave a Ki of 22 nM. With `COc1cc2c(cc1NC(=O)c1cnn3ccc(N4C[C@@H](N)CC(F)(F)C4)nc13)CC(C)(C)O2` [Example 36, (S)-5-(5-Amino-3,3-difluoropiperidin-1-yl)-N-(6-methoxy-2,2-dimethyl-2,3-dihydrobenzofuran-5-yl)pyrazolo[1,5-a]pyrimidine-3-carboxamide] the Ki was 14 nM. `Cc1noc(C)c1CN1CCN(c2cc3c(cc2NC(=O)c2cnn4cccnc24)CC(C)(C)O3)CC1` [Example 16, N-(6-(4-((3,5-Dimethylisoxazol-4-yl)methyl)piperazin-1-yl)-2,2-dimethyl-2,3-dihydrobenzofuran-5-yl)pyrazolo[1,5-a]pyrimidine-3-carboxamide] showed a Ki of 14 nM. Work on `CC(C)(O)[C@H](F)CN1Cc2cc(NC(=O)c3cnn4cccnc34)c(N3CCN4CCC[C@@H]4C3)cc2C1=O` [Example 100, N-(2-((R)-2-Fluoro-3-hydroxy-3-methylbutyl)-6-((R)-hexahydropyrrolo[1,2-a]pyrazin-2(1H)-yl)-1-oxoisoindolin-5-yl)pyrazolo[1,5-a]pyrimidine-3-carboxamide] yielded a Ki of 1.8 nM. For `CCN1C[C@H](COc2cc3c(cc2NC(=O)c2cnn4cccnc24)CC(C)(C)O3)CC1=O` [Example 22, (R)-N-(6-((1-Ethyl-5-oxopyrrolidin-3-yl)methoxy)-2,2-dimethyl-2,3-dihydrobenzofuran-5-yl)pyrazolo[1,5-a]pyrimidine-3-carboxamide], the Ki was 460 nM.
